# Values quoted from earlier work, collected in patent US10485783B1, “Methods and compositions for reducing or eliminating symptoms of withdrawal from drugs and alcohol” (Longevity Healthcare Center, priority 2018, dated 2019).
# How the values were obtained:
# [1] = system: GABAA and GABAB receptors; settings: synergistic with a GABAA receptor agonist, blocked by a GABAB receptor agonist
# [2] = in vitro
# [3] = system: rats self-administering morphine; settings: morphine 2 hours per day on 10 consecutive days, then ascorbic acid intraperitoneally
SMILES,anti-depressive activity [1],concentration at which ascorbic acid generates free radicals (pro-oxidant) [2] [mM],level of morphine self-administration (number of lever pressings) and number and intensity of withdrawal symptoms [3]
CNC1(c2ccccc2Cl)CCCCC1=O (stereo not shown) [Ketamine],anti-depressive activity,–,–
O=C1O[C@H]([C@@H](O)CO)C(O)=C1O [ascorbic acid],anti-depressive activity,3 to 5,decrease
